{"source": "patent EP4559898A1", "about": "“NOVEL IONIZABLE CATIONIC LIPIDS CONTAINING THIOETHER LINKAGE” (AldexChem Kft., priority 2023, dated 2025)", "key": {"[1]": {"system": "HeLa", "test": "Transfection efficiency with Luciferase-mRNA (SecNLuc), Nano-Glo assay", "type": "cell-based", "conditions": "24 hours, luminescence (Nano-Glo); for Transfection 10 ng mRNA: 10 ng SecNLuc mRNA/well; for Transfection 50 ng mRNA: 50 ng SecNLuc mRNA/well; for Transfection 100 ng mRNA: 100 ng SecNLuc mRNA/well", "protocol": "• 1. Prepare mRNA solution by adding 100 ng mRNA (SecNLuc, #P009024, RiboPro) to 5 µl Opti-MEM • multiply by number of wells, include different concentrations and add 10% extra • a standard set-up we use is 100 ng - 50 ng - 10 ng mRNA/well in triplicate, which would need […] mRNA (includes 10% extra)\n• 2. (If applicable) Prepare different concentrations in Opti-MEM (for instance 100/50/10 ng). • 3. Add 10 µl to each well and mix carefully by pipetting. • 4. Mix by swirling the plate horizontally at modest speed. Reverse in direction 3 times. • 5. Incubate for 24 hours (incubator).\nThis protocol is applied to measure luciferase activity for secreted NanoLuc and is based on the protocol by Promega (Nano-Glo® Luciferase Assay System #N1110-1150). The protocol is designed for a 384-wells plate, but volumes can be changed accordingly for other plates.\n• 1. Plate cells (HeLa) in 96-well plate, grow until 80% confluent and transfect with SecNanoLuc mRNA and incubate for the desired period (24h). • 2. After incubation, the translated protein is accumulated in the medium. Transfer medium to a new plate or tubes . • 3. Transfer 12 µl of each sample to a black-walled, clear-bottom 384-well plate Black-walled plates are important to prevent shine-through of luminescence from other wells; alternatively, multiple wells between samples can be left empty. • 4. Set-up plate reader • 5. Prepare the desired amount of Nano-Gio® Luciferase Assay Reagent by combining one volume of Nano-Glo® Luciferase Assay Substrate with 50 volumes of Nano-Glo® Luciferase Assay Buffer: • a. composition: 100 mM MES pH 6; 1 mM EDTA; 0.5% […]; 150 mM KCl; 1 mM DTT; 35 mM Thiourea; • b. briefly spin tubes containing substrate in a microcentrifuge before use. • 6. Add and mix (by pipetting) 12 µl Nano-Glo® Luciferase Assay Reagent per well • Wait approximately 3 minutes before measuring luminescence. The luminescence intensity will decay gradually, with a signal half-life of approximately 120 minutes at room temperature. • 7. Measure luminescence in plate reader using standard protocol luciferase (this includes mixing sample in plate reader)"}, "[2]": {"test": "Cell viability assessment with Resazurin assay", "type": "cell-based", "conditions": "human, hela cells, average over all doses, percent of OptiMEM-only control, read-out: Cell Viability % (Average metabolic rate over all doses, Resazurin)", "text": "This protocol is used to determine the metabolic activity of cells as a measure for cell viability after exposure to potentially toxic substances. Resazurin is converted in mitochondria by reduction to resorufin, which has a much higher fluorescence at ~600 nm compared to unconverted resazurin. A lower amount/percentage of conversion is correlated with reduced cellular metabolism and indirectly to cellular death and toxicity. Care must be taken with interpretation of the read-out, as 50% reduction in resazurin conversion may mean 50% reduction of cellular metabolism of 100% alive cells, or 50% of cells dead, and any combination in between.\n• 1. Prepare 0.25 mg/ml stock solution resazurin in fresh cell culture medium. Resazurin is auto-reducing over time in solution, especially in medium, and fresh stocks should be prepared every 2-3 days. Stocks should be stored at 4°C and protected from light. For HeLa cells, DMEM/F12 with 10% FCS is used. • 2. Dilute stock solution 10x in fresh cell culture medium to 0.025 mg/ml -> ready for application on cells. For HeLa cells, DMEM/F12 with 10% FCS is used. • 3. Collect 96-well plate and replace cell-culture spent medium with 100 µl per well resazurin solution. Add some resazurin solution for background measurement in wells not containing cells. • 4. Incubate for 50 minutes in incubator at 37°C, 5% CO2, 95% RH. • 5. Transfer resazurin solution to a fresh 96- or 384-well plate. • 6. Measure in plate reader using 540/25 nm (excitation) and 610/40 nm (emission) using standard settings (PTM low/OD-1.0). • 7. Subtract the average background measurement from all samples. Set the average of the negative controls (well receiving OptiMEM only during transfection) to 100% and express all values as percentage of the control activity. Typically, at lower levels of treatment, elevation of metabolic activity is shown, whereas for toxic substances, at toxic concentrations sigmoidal curves can be obtained, with lower activity indicating higher toxicity."}}, "data": [{"smiles": "CCCCCCCCCCSC(CCCCCC)C(=O)OCCCCCCN(CCCCO)CCCCCCOC(=O)C(CCCCCC)SCCCCCCCCCC", "note": "(centres unmarked) [Example 8, ((4-hydroxybutyl)azanediyl)bis(hexane-6,1-diyl) bis(2-(decylthio)octanoate)]", "values": [{"measurement": "Transfection 10 ng mRNA", "setting": "[1]", "result": "2,80E+06"}, {"measurement": "Transfection 50 ng mRNA", "setting": "[1]", "result": "1,36E+07"}, {"measurement": "Transfection 100 ng mRNA", "setting": "[1]", "result": "1,11E+07"}, {"measurement": "viability at 24 h", "setting": "[2]", "result": 104, "unit": "%"}]}, {"smiles": "CCCCCCCCC(CCCCCC)C(=O)OCCCCCCN(CCCCO)CCCCCCOC(=O)C(CCCCCC)CCCCCCCC", "note": "(centres unmarked) [ALC-0315 ref., reference compound]", "values": [{"measurement": "Transfection 10 ng mRNA", "setting": "[1]", "result": "3,21E+06"}, {"measurement": "Transfection 50 ng mRNA", "setting": "[1]", "result": "1.47E+07"}, {"measurement": "Transfection 100 ng mRNA", "setting": "[1]", "result": "1,04E+07"}, {"measurement": "viability at 24 h", "setting": "[2]", "result": 96, "unit": "%"}]}, {"smiles": "CCCCCCCSC(CCCCCC)C(=O)OCCCCCCN(CCCCO)CCCCCCOC(=O)C(CCCCCC)SCCCCCCC", "note": "(centres unmarked) [Example 9, ((4-hydroxybutyl)azanediyl)bis(hexane-6,1-diyl) bis(2-(heptylthio)octanoate)]", "values": [{"measurement": "Transfection 10 ng mRNA", "setting": "[1]", "result": "2,79E+06"}, {"measurement": "Transfection 50 ng mRNA", "setting": "[1]", "result": "1,36E+07"}, {"measurement": "Transfection 100 ng mRNA", "setting": "[1]", "result": "1,43E+07"}, {"measurement": "viability at 24 h", "setting": "[2]", "result": 106, "unit": "%"}]}, {"smiles": "CCCCCCCCCCSC(CCCC)C(=O)OCCCCCCN(CCO)CCCCCCOC(=O)C(CCCC)SCCCCCCCCCC", "note": "(centres unmarked) [Example 4, ((2-hydroxyethyl)azanediyl)bis(hexane-6,1-diyl) bis(2-(decylthio)hexanoate)]", "values": [{"measurement": "Transfection 10 ng mRNA", "setting": "[1]", "result": "2,53E+06"}, {"measurement": "Transfection 50 ng mRNA", "setting": "[1]", "result": "1,23E+07"}, {"measurement": "Transfection 100 ng mRNA", "setting": "[1]", "result": "8,17E+06"}, {"measurement": "viability at 24 h", "setting": "[2]", "result": 98, "unit": "%"}]}, {"smiles": "CCCCCCCCCCSC(CCCC)C(=O)OCCCCCCCCN(CCCCO)CCCCCCCCOC(=O)C(CCCC)SCCCCCCCCCC", "note": "(centres unmarked) [Example 3, ((4-hydroxybutyl)azanediyl)bis(octane-8,1-diyl) bis(2-(decylthio)hexanoate)]", "values": [{"measurement": "Transfection 10 ng mRNA", "setting": "[1]", "result": "9,69E+05"}, {"measurement": "Transfection 50 ng mRNA", "setting": "[1]", "result": "1,02E+07"}, {"measurement": "Transfection 100 ng mRNA", "setting": "[1]", "result": "1,37E+07"}, {"measurement": "viability at 24 h", "setting": "[2]", "result": 103, "unit": "%"}]}, {"smiles": "CCCCCCCCC(SCCCCCCC)C(=O)OCCCCCCN(CCCCO)CCCCCCOC(=O)C(CCCCCCCC)SCCCCCCC", "note": "(centres unmarked) [Example 6, ((4-hydroxybutyl)azanediyl)bis(hexane-6,1-diyl) bis(2-(heptylthio)decanoate)]", "values": [{"measurement": "Transfection 10 ng mRNA", "setting": "[1]", "result": "3,47E+06"}, {"measurement": "Transfection 50 ng mRNA", "setting": "[1]", "result": "1,83E+07"}, {"measurement": "Transfection 100 ng mRNA", "setting": "[1]", "result": "2,52E+07"}, {"measurement": "viability at 24 h", "setting": "[2]", "result": 101, "unit": "%"}]}, {"smiles": "CCCCCCCCCCSC(CCCC)C(=O)OCCCCCCN(CCCCCCOC(=O)C(CCCC)SCCCCCCCCCC)CCC1CCCN1C", "note": "(centres unmarked) [Example 5, ((2-(1-methylpyrrolidin-2-yl)ethyl)azanediyl)bis(hexane-6,1-diyl) bis(2-(decylthio)hexanoate)]", "values": [{"measurement": "Transfection 10 ng mRNA", "setting": "[1]", "result": "4,17E+05"}, {"measurement": "Transfection 50 ng mRNA", "setting": "[1]", "result": "3,34E+06"}, {"measurement": "Transfection 100 ng mRNA", "setting": "[1]", "result": "6,52E+06"}, {"measurement": "viability at 24 h", "setting": "[2]", "result": 97, "unit": "%"}]}, {"smiles": "CCCCCCCCCCSC(CCCCCCCC)C(=O)OCCCCCCN(CCCCO)CCCCCCOC(=O)C(CCCCCCCC)SCCCCCCCCCC", "note": "(centres unmarked) [Example 7, ((4-hydroxybutyl)azanediyl)bis(hexane-6,1-diyl) bis(2-(decylthio)decanoate)]", "values": [{"measurement": "Transfection 10 ng mRNA", "setting": "[1]", "result": "1,62E+06"}, {"measurement": "Transfection 50 ng mRNA", "setting": "[1]", "result": "1,47E+07"}, {"measurement": "Transfection 100 ng mRNA", "setting": "[1]", "result": "2,01E+07"}, {"measurement": "viability at 24 h", "setting": "[2]", "result": 106, "unit": "%"}]}, {"smiles": "CCCCCCCCCCSC(CCCC)C(=O)OCCCCCCN(CCCCO)CCCCCCOC(=O)C(CCCC)SCCCCCCCCCC", "note": "(centres unmarked) [Example 1, ((4-hydroxybutyl)azanediyl)bis(hexane-6,1-diyl) bis(2-(decylthio)hexanoate)]", "values": [{"measurement": "Transfection 10 ng mRNA", "setting": "[1]", "result": "3,81E+06"}, {"measurement": "Transfection 50 ng mRNA", "setting": "[1]", "result": "1,83E+07"}, {"measurement": "Transfection 100 ng mRNA", "setting": "[1]", "result": "1,69E+07"}, {"measurement": "viability at 24 h", "setting": "[2]", "result": 90, "unit": "%"}]}, {"smiles": "CCCCCCCCC(SCCCCC)C(=O)OCCCCCCN(CCCCO)CCCCCCOC(=O)C(CCCCCCCC)SCCCCC", "note": "(centres unmarked) [Example 2, ((4-hydroxybutyl)azanediyl)bis(hexane-6,1-diyl) bis(2-(pentylthio)decanoate)]", "values": [{"measurement": "Transfection 10 ng mRNA", "setting": "[1]", "result": "2,40E+06"}, {"measurement": "Transfection 50 ng mRNA", "setting": "[1]", "result": "1,60E+07"}, {"measurement": "Transfection 100 ng mRNA", "setting": "[1]", "result": "1,39E+07"}, {"measurement": "viability at 24 h", "setting": "[2]", "result": 94, "unit": "%"}]}, {"smiles": "CCCCCCCCCCCCCCSCC(=O)OCCCCCCN(CCCCO)CCCCCCOC(=O)CSCCCCCCCCCCCCCC", "note": "[Example 10, ((4-hydroxybutyl)azanediyl)bis(hexane-6,1-diyl) bis(2-(tetradecylthio)acetate)]", "values": [{"measurement": "Transfection 10 ng mRNA", "setting": "[1]", "result": "2,92E+05"}, {"measurement": "Transfection 50 ng mRNA", "setting": "[1]", "result": "3,57E+06"}, {"measurement": "Transfection 100 ng mRNA", "setting": "[1]", "result": "1,10E+07"}, {"measurement": "viability at 24 h", "setting": "[2]", "result": 99, "unit": "%"}]}]}
